Laboratory results: a melting point compilation (Tetko et al.; mined from patent text by program, amines drawn as free bases though some values may be those of a salt)

Compound	melting point
COC(=O)c1ccc([N+](=O)[O-])cc1C	73.6 °C
Cc1cccc(-c2ccc3c(c2)c(C(=O)C(=O)NCC(=O)O)cn3Cc2ccc(C(C)(C)C)cc2)c1	108 to 109 °C
CC(C)(C)c1cc(Sc2n[nH]c(=S)o2)cc(C(C)(C)C)c1O	129 to 131 °C
CC(C)(C)OC(=O)N1CC(CCl)c2c1ccc1cc(C#N)ccc21 (centres undefined)	171 to 172 °C
CC(=O)c1ccc(Nc2ccccc2)cc1	105 °C
COc1ccccc1C1SCCCS1	127 to 128 °C
Cc1cc(O)c(C)c(O)c1C#N	162 to 163 °C
COc1ccc(N2CCN(c3ccc(N4C(=O)N(C(C)C(C)=O)C(C)(C)C4=O)cc3)CC2)cc1 (centres undefined)	226 °C
Nc1cc(O)nc2c(-c3ccncc3)c(-c3ccc(F)cc3)nn12	> 250 °C
O=C(O)C(=O)c1cn2c3c(cccc13)CCC2	152 to 155 °C
COC(=O)c1ccc(C(=O)NNC(=O)C=Cc2ccccc2)cc1	207 °C
NCC1Cc2c(ccc3c2CCCC3)O1 (centres undefined)	> 225 °C
NC(=O)[C@@H]1[C@H](Nc2c(Br)cnc3[nH]c(-c4ccc(N5CCOCC5)nc4)nc23)[C@H]2C=C[C@@H]1C2	288 to 290 °C
Cc1cc(C)c2c(n1)Nc1cc(C)c(C)cc1N(C)C2=O	225 to 227 °C
CC(C)(C)N(CC(=O)O)C(=O)C(NC(=O)c1ccccc1)SC(=O)c1ccccc1 (centres undefined)	157 to 160 °C
O=c1[nH]cnc2c(Br)sc(Br)c12	> 250 °C
O=C1N(Cc2cccnc2)c2ccccc2C12COc1ccc3nonc3c12 (centres undefined)	230 to 232 °C
COc1ccccc1CN1Cc2cc(OC)c(OCc3ccccc3)cc2C(OC)C1 (centres undefined)	101 to 102 °C
COC(=O)c1ccc(CC(C)NCC(O)c2ccc(O)c(CO)c2)cc1O (centres undefined)	81 to 83 °C
O=C1CCC(c2ccc3c(c2)NC(=O)CS3)=NN1	299 to 302 °C
CC(=O)NN=Cc1ccc(N2CCN(C)CC2)nc1F	210 to 212 °C

Compound	melting point
C#Cc1ccc2c(c1)C(=O)N(c1ccc3c(c1)C=C3)C2=O	191 to 192 °C
O=C(NCc1ccc(Cl)cc1)c1cn(CCN2CCCC2)c2ccc(C#CCO)cc2c1=O	189 to 192 °C
COC(=O)C1=C(C)Nc2nc(N3CCOCC3)nc(N3CCOCC3)c2C1c1ccc([N+](=O)[O-])cc1 (centres undefined)	236 °C
CC(=O)OC1CC2C(=O)CC3C(CCC4(C)C(C(C)C=CC(C)C(C)C)CCC34)C2(C)CC1OC(C)=O (centres undefined)	196 to 197 °C
O=C(C1=C(c2ccccc2)c2ccc(O)cc2C1)c1ccc(O)cc1	191 to 192 °C
CS(=O)c1nnc(-c2ccccc2NC(=O)c2cccc(C(F)(F)F)c2)s1 (centres undefined)	125 to 126 °C
Cc1ccc(Nc2nnc(Cc3ccncc3)c3ccccc23)cc1	152 to 153 °C
O=C1NC(=C2CCCC2)Sc2ccccc21	190 to 191 °C
CC1(CO)C(O)CCC2(C)C1CCC1CC3CC12CCC3(O)CO (centres undefined)	290 to 300 °C
Clc1cnc(Cl)c2cc(Br)ccc12	134 to 135 °C
COc1ccc(C2=NN(c3ccc(C(=O)Nc4ccc(-c5ccc(=O)[nH]n5)cc4)cc3)C(=O)[C@H]3CC=CC[C@@H]23)cc1OC (relative stereo)	272 to 273 °C
CS(=O)(=O)c1ccc(-c2nn3c4c(oc3c2-c2ccc(F)cc2)CSCC4)cc1	178 to 180 °C
COc1ccc(CCc2cc3c(s2)-n2c(C)nnc2CN=C3c2ccccc2Cl)cc1	100 to 105 °C
Oc1ccc2c(c1)CC(CCc1ccccc1)O2 (centres undefined)	56 to 58 °C
O=c1[nH]c2ccc(Br)cc2n1Cc1ccccc1	245 to 246 °C
CN1COC(CC23CCC(c4ccccc42)c2ccccc23)C1 (centres undefined)	106 to 109 °C
CNC(=O)ON=C(SCC(N)=O)C(C)(C)[N+](=O)[O-]	125 to 127 °C
CN1CC(OC(=O)C(c2ccccc2)c2ccccc2)CNC1=N[N+](=O)[O-] (centres undefined)	187 °C
Cc1cc(O)n2nc(SCc3ccccc3)nc2c1	214 to 216 °C
C=C(Br)Cc1cc2c(C)cc(=O)oc2c(C)c1O	154 to 161 °C

More lines, now with the values ahead:

melting point	Compound
68 to 70 °C	CCOC(=O)CN(C(=O)N1CCN(c2cc(C)cc(C)c2)CC1)c1cc(C(C)O)c(C)nc1OC (centres undefined)
114 to 115 °C	CCc1cccc2c(/C(C)=C/C(=O)O)cc(OC)c(OCOC)c12
71 to 72 °C	O=C(O)CCCCCCCCCCCCCCCCCCCCCI
112 to 114 °C	Cc1cccc(-c2oc3c(C(=O)NCCCN4CCCCC4)cccc3c(=O)c2C)c1
104 to 106 °C	CCOC(=O)C1CCC(c2ccccc2)n2c(=O)n(CCl)c(=O)n21 (centres undefined)
93 to 94 °C	CCOC(=O)c1cn(-c2ccc(OC)cc2)cn1
163 to 165 °C	CCOC(=O)c1cc2c(OCC(O)CNC(C)C)cc(C)cc2[nH]1 (centres undefined)
142 to 144 °C	COc1ccc2[nH]c(SCc3cc(N4CCOCC4)c(F)cn3)nc2c1
157 to 159 °C	COC(=O)C(=O)Nc1ccc2c3c(n(CCCNC(=O)OC(C)(C)C)c(=O)c2c1)-c1ccccc1C3=O
88 °C	Cc1ccc(S(=O)(=O)OCCN(c2ccc(OC(F)(F)F)cc2)S(=O)(=O)c2ccc(C)cc2)cc1
132 to 134 °C	CCn1cc(-c2ccc3nnn(Cc4ccc5ncccc5c4)c3n2)cn1
179 to 182 °C	COCCOC(=O)c1c(F)cccc1S(=O)(=O)NC(=O)Nc1nc(OC)nc(OC)n1
60 to 61 °C	CCCc1nnc(Cc2ccc(N)cc2)o1
109 to 110 °C	CSC(=S)OC(C(=O)O)c1ccccc1 (centres undefined)
133 to 136 °C	CC(C)(C)CNc1nc(Cl)ncc1CN=[N+]=[N-]
149 to 151 °C	CCN(C(=O)C1CC1)c1cccc(-c2ccc3nnc(C)n3n2)c1
203 to 205 °C	CCSC/C=C\c1cc(F)c2ncc(C(=O)NCc3ccc(Cl)cc3)c(O)c2c1
113 to 114 °C	O=C(NCCCCc1ccccc1)Oc1ccc2oc3ccccc3c2c1
89 to 93 °C	COc1ccc(CCc2ccncc2)c2c1OCC2C (centres undefined)
111 to 113 °C	COc1cc(C(O)(C(F)(F)F)C(F)(F)F)cc(C)c1OCC(=O)O

melting point	Compound
135 to 140 °C	O=C(c1cc(N2CCC(N3CCCC3)CC2)ccn1)N(O)Cc1ccccc1
71.5 to 73 °C	CCCOc1ccc(S(=O)(=O)N2CCN(CCOC(=O)CCC)CC2)cc1-c1nc2c(CCC)cn(CC)c2c(=O)[nH]1
231 to 233 °C	CCOC(=O)N1CCC(Nc2nc3ccccc3[nH]2)CC1
116 to 117 °C	O=C(Nc1ccccc1O)c1ccc(OCCCCc2ccccc2)cc1
103 to 105 °C	Nc1nc2ccccc2c2c1ncn2CCCCNC(=O)c1cccc(C(=O)c2ccccc2)c1
76 °C	CCOC(=O)c1ccc(N(CC)CCc2ccccc2OCc2ccccc2)cc1
256 to 258 °C	Cn1c(=O)nc(-c2ccccc2)c2ccsc21
228 to 229 °C	O=C(Cn1c(-c2ccc(Cl)cc2)nc2cccnc21)NCC1CC1
151 to 153 °C	CNc1cccc(C(C)=O)c1OCCCN1CCC(c2noc3cc(F)ccc23)CC1
120 to 125 °C	CCOc1c(Nc2ccncc2)c(=O)c1=O
113 to 114 °C	CCOP(=O)(/C=C/c1cn(-c2ccccc2)nc1OCc1ccc(OCc2sc(-c3ccccc3)nc2C)c(OC)c1)OCC
147 to 149 °C	O=C(O)CCc1cn(-c2cccnc2)c2ccccc12
128 to 130 °C	CC(=O)c1cc2c(s1)CCCC1CC(=O)N(c3ccc(Cl)cc3)N=C21 (centres undefined)
115 to 120 °C	COC(=O)c1ccccc1OCc1ccc(COc2ccccc2C(=O)OC)cc1
215 °C	CC(=O)n1cc(-c2ccccc2)c(O)n1
115 to 116 °C	CCON=C(CC)C1=C(O)CC(c2ccc(NS(C)(=O)=O)cc2)CC1=O (centres undefined)
283 to 286 °C	CCn1c(N)c(C(=O)NC)c(=O)c2ccc(Cl)nc21
104 to 105 °C	CC(C)(C)C(O)(COc1ccc(F)cc1)C(Cc1ccc(Cl)cc1)n1cncn1 (centres undefined)
199 to 201 °C	CCCCNS(=O)(=O)c1cc(C(=O)O)cc([N+](=O)[O-])c1Cl
158 to 160 °C	O=C(/C=C/C=C/c1ccccc1)NCCSCCC(=O)NO

melting point	Compound
89 to 90 °C	COC(=O)COc1c(Cl)cc(C(=O)CBr)cc1Cl
112 to 113 °C	CCOC(=O)C=Cc1ccc(O)c(Br)c1
94 °C	COC(=O)Cn1c(C(=O)OCc2ccccc2)cc2ccccc21
107 to 110 °C	C#CCN(Cc1ccc2nc(Cl)c(N)cc2c1)c1ccc(C(=O)N[C@@H](CCC(=O)O)C(=O)O)c(F)c1
143 to 145 °C	COC(=O)C(CC(C)C)NC(=O)c1cc([N+](=O)[O-])cc([N+](=O)[O-])c1 (centres undefined)
112 to 147 °C	CCC1(C)CC(NC(=O)c2ccccc2)C(C)C(C)(CC)N1OC(C)c1ccccc1 (centres undefined)
127 to 130 °C	CC(=O)c1cc(F)ccc1Oc1nc2ccc(N=[N+]=[N-])cc2cc1Cc1ccccc1
172 °C	CC(=O)C(O)C1OC(Sc2ncc(Cl)cn2)C(O)(C(C)=O)C(O)(C(C)=O)C1(O)C(C)=O (centres undefined)
192 to 194 °C	CNC(=O)c1nn(-c2ccc(Cl)cc2)c(=O)c2c(N)scc12
151 to 153 °C	CCCN(C(=O)OC(C)(C)C)C(CC(C)C)C(=O)NCC(=O)Oc1c(Cl)c(Cl)c(Cl)c(Cl)c1Cl (centres undefined)
164 to 166 °C	CCCCc1nc2c(N)nc3c(c2n1CC(C)C)CCNC3
208 °C	Cc1ccnc(C(=O)n2cc(CC(=O)N(C)C)c3ccc(Cl)cc32)c1
68 to 73 °C	O=C(NC1CCN(C(=O)OCCC2(C(=O)NCC(F)(F)F)c3ccccc3-c3ccccc32)CC1)c1ccccc1Oc1ccccc1
167 to 169 °C	OCC1OC(n2cnc3c(NCCc4csc5ccc(Cl)cc45)ncnc32)C(O)C1O (centres undefined)
253 °C	COC(=O)Cn1c(=O)[nH]c2ccc(C(=O)c3c(C)c(OC)c4ccccn34)cc2c1=O
181 to 185 °C	C[C@H]1[C@H](N(C)C)CN1c1cc2c(cc1F)c(=O)c(C(=O)O)cn2C1CC1 (relative stereo)
218 to 219 °C	Cc1c(Oc2ccc(C(=O)NC(C)C)cc2)c2cc(F)ccc2n1CC(=O)O
65 to 67 °C	CCCCCCCCCCCCCCCCCCOCC(CO)Oc1nccs1 (centres undefined)
